From paper PMC6199279, “Design of Peptoid-peptide Macrocycles to Inhibit the β-catenin TCF Interaction in Prostate Cancer” (Nature Communications, 2018)
Numbered stars: 1 amine (or outer) side, 2 acyl side, 3 side chain; on linkers, the order of the positions; unused ones are H or OH. Square brackets hold non-standard residues; d marks the D form. Peptide text beside a SMILES is read from it. N(2-(2-PhOPh)Et)Gly = O=C(O)CNCCc1ccccc1Oc1ccccc1; Gly(N-3,5-(OMe)2-Ph) = COc1cc(NCC(=O)O)cc(OC)c1; X1 = COc1ccc([C@H](C)N(CC(=O)[*:2])[*:1])cc1; N((CH2)3OiPr)Gly = CC(C)OCCCNCC(=O)O

Tests used:
[1] = tested on: LNCaP-95 cells; settings: read-out: IC50 proliferation, LNCaP-95; 5 days of treatment
Method: (§1) To test the effect of 13 in a model of prostate cancer, we used the LNCaP-abl and LNCaP-95 cell lines. These cell lines were derived from androgen-sensitive LNCaP cells, and passaged in androgen-deprived media to mimic the development of castration resistance in patient tumors[54],[55]. We first isolated mRNA from LNCaP-abl and LNCaP-95 cells treated with vehicle, 10 µM 13 and linear 13 for 24 h to check the expression of endogenous Wnt and AR target genes (Fig. 4a). […] AR-V7 is particularly challenging to target as most AR antagonists target the ligand binding domain. […] To check if the changes in Wnt and AR target gene expression translated into effects on growth, the viability of LNCaP-abl and LNCaP-95 cells was determined after 5 days of treatment (Fig. 4b).
(§2) Data are presented as mean and SD (n = 3) of three independent experiments (a) or representative of three independent experiments (b, c).
(§3) LNCaP-abl and LNCaP-95 cells were cultured in indicator free RPMI 1640 media (Life) supplemented with 10% charcoal stripped FBS, 1% pennicillin/streptomycin, and 1% L-Glutamine. […] Both were measured using the ONE-Glo detection kit (Promega) and data is standardized to CellTiter-Fluor (Promega) viability readings to account for potential variations in well to well cell number. […] Total protein concentration in cell lysates were determined using Pierce Rapid Gold BCA Protein Assay Kit (Thermo). […]

[2] = tested on: LNCaP-abl cells; settings: read-out: IC50 proliferation, LNCaP-abl; 5 days of treatment
Method: as §1, §2, §3

`COc1ccc([C@H](C)N2CC(=O)N[C@H](C)C(=O)N(CCc3ccccc3Oc3ccccc3)CC(=O)N(c3cc(OC)cc(OC)c3)CC(=O)N(CCCOC(C)C)CC(=O)N([C@@H](C)c3ccc(OC)cc3)CC2=O)cc1` [Compound 13] (cyclo([dA][N(2-(2-PhOPh)Et)Gly][Gly(N-3,5-(OMe)2-Ph)][N((CH2)3OiPr)Gly][X1][X1])) showed an IC50 [1] of 782 nM and an IC50 [2] of 195 nM.
